These results are taken from patent US20040162432A1, “Substituted octahydrophenanthrene compounds and use thereof as NMDA antagonists” (priority 2001, published 2004).

Assay [1] concerns (+)-MK801 binding site of the ionotropic NMDA receptor. Kind of assay: (3H)-(+)-MK801 receptor binding test on rat brain membrane homogenates. Conditions: 10 μmol/l compound; ligand (3H)-(+)-MK801; rat brain membrane homogenate; triplicate batches. How it is done:
The investigations for determining the affinity of the octahydrophenanthrene compounds of the general formula I according to the invention with the (+)-MK801 binding site of the ionotropic NMDA receptor was performed on brain membrane homogenates (homogenate of rat brain without the cerebellum, pons and medulla oblongata of male rats, Wistar strain, Charles River, WIGA GmbH, Sulzbach, Germany) as described in B. M. Baron et al., Journal of Pharmacology and Experimental Therapeutics, vol. 279, pages 62-68, 1996. The corresponding literature description is hereby introduced as a reference and is deemed to be part of the disclosure.
To this end, after separation of the cerebellum, pons and medulla oblongata, freshly prepared rat brains were disrupted for 1 minute with a Polytron homogeniser at 6,000 rpm in 50 mmol/l of tris/HCl (pH 7.7) with ice cooling and were then centrifuged for 15 min at 4° C. and 60,000 g. After decanting off and discarding the supernatant, resuspending the membrane pellet in 50 mmol/l of tris/HCl (pH 7.7) and disrupting it with a homogeniser at 2,000 rpm for 1 minute, centrifuging was again performed for 15 min at 4° C. and 60,000 g. The supernatant was again discarded and the membrane pellet was homogenised in 50 mmol/l of tris/HCl (pH 7.7) (2,000 rpm for 1 minute) and frozen in aliquots at −70° C.
Aliquots were in each case thawed for the receptor binding test and then centrifuged for 15 min at 4° C. and 60,000 g. After decanting off and discarding the supernatant, the membrane pellet was suspended for the binding test with binding test buffer and homogenised (2,000 rpm for 1 minute).
The buffer used for the binding test was a buffer of 5 mmol/l of tris/HCl (pH 7.7), supplemented with 30 μmol/l of glycine and 100 μmol/l of glutamic acid.
The radioactively labelled ligand used was […] of (^3H)-(+)-MK801 ((5R,10S)-(+)-5-methyl-10,11-dihydro-5H-dibenzo(a,d)cyclohepten-5,10-imine). The level of non-specific binding was determined in the presence of 10 μmol/l of non-radioactively labelled (+)-MK801.
were added in concentration series and the displacement of the radioactive ligand from its specific binding on the NMDA receptor was determined. Each of the triplicate batches was incubated for 40 minutes at 25° C. and then harvested by filtration through glass fibre filters (GF/B) in order to determine the radioactive ligand bound to the brain membrane homogenate. The radioactivity retained on the glass fibre filter disk was measured, after addition of scintillating liquid, in the β-counter.
The percentage inhibition of the specific binding of the ligand (^3H)-(+)-MK801 obtained from triplicate batches in the presence of in each case 10 μmol/l of the substituted octahydrophenanthrene compounds of the general formula I is stated in Table 1 and serves as a measure of the affinity of the compounds of the general formula I according to the invention with the (+)-MK801 binding site of the ionotropic NMDA receptor.

Assay [2] relates to phenylquinone-induced writhing in mice. Put plainly: Writhing test in mice (phenylquinone-induced writhing). Type of assay: in vivo. The following applies: male mice, phenylquinone i.p., writhing counted 5-20 minutes after phenylquinone. The method, then:
The analgesic efficacy of the compounds according to the invention was investigated by phenylquinone-induced writhing in mice, modified after I.C. Hendershot, J. Forsaith in J. Pharmacol. Exp. There. 125, 237-240 (1959). Male mice weighing 25-30 g were used for this purpose. Groups of 10 animals per substance dose received, 1.0 minute after intravenous administration of the substances tested, 0.3 ml/mouse of a 0.02% aqueous solution of phenylquinone (phenylbenzoquinone, Sigma, Deisenhofen; solution prepared with addition of 5% of ethanol and stored in a water bath at 45° C.) administered intraperitoneally. The animals were then placed individually in observation cages. A push button counter was used to record the number of pain-induced stretching movements (writhing reactions=straightening of the torso with stretching of the rear extremities) for 5-20 minutes after phenylquinone administration. The control was provided by animals who received only physiological common salt solution with phenylquinone.
All the substances were tested at the standard dosage of 10 mg/kg. The percentage inhibition (% inhibition) of the writhing reactions by a substance was calculated according to the following formula: [formula]

On to `CN(C)CC1CCCC2c3cc(O)ccc3CCC12.Cl` (stereo not drawn) [Compound 3, 8-Dimethylaminomethyl-4b,5,6,7,8,8a,9,10-octahydrophenanthren-3-ol hydrochloride], for which, in assay [1], the “Percentage inhibition of (+)-MK801 binding at 10 μM” value (shortened to “Percentage inhibition … at 10 μM”) stood at 40%. In addition, the “Percentage inhibition of writhing reaction at 10 mg/kg i.v.” value (“Percentage inhibition … at 10 mg/kg i.v.” below) in assay [2] turned out to be 85%.

Take `CN(C)CC1CCCC2c3cc(Cl)ccc3CCC12.Cl` (stereo not drawn) [Compound 5, 8-Dimethylaminomethyl-3-chloro-4b,5,6,7,8,8a,9,10-octahydrophenanthrene hydrochloride]: the “Percentage inhibition … at 10 μM” value in assay [1] is 28%.

Consider `CN(C)CC1CCCC2c3ccccc3CCC12.Cl` (stereo not drawn) [Compound 1, 8-Dimethylaminomethyl-4b,5,6,7,8,8a,9,10-octahydrophenanthrene hydrochloride], for which, in assay [1], the “Percentage inhibition … at 10 μM” value is 46%. Besides, in assay [2], the “Percentage inhibition … at 10 mg/kg i.v.” value came out at 74%.

As for `COc1ccc2c(c1)C1CCCC(CN(C)C)C1CC2.Cl` (stereo not drawn) [Compound 2, 8-Dimethylaminomethyl-3-methoxy-4b,5,6,7,8,8a,9,10-octahydrophenanthrene hydrochloride], the “Percentage inhibition … at 10 μM” value in assay [1] came out at 56%. In assay [2], the “Percentage inhibition … at 10 mg/kg i.v.” value is on record as 75%.

As to `CN(C)CC1CC(C(C)(C)C)CC2c3ccccc3CCC12.Cl` (stereo not drawn) [Compound 6, 6-tert-Butyl-8-dimethylaminomethyl-4b,5,6,7,8,8a,9,10-octahydrophenanthrene hydrochloride], the “Percentage inhibition … at 10 μM” value in assay [1] was determined as 31%.

Regarding `CN(C)CC1CCCC2c3ccc(F)cc3CCC12.Cl` (stereo not drawn) [Compound 4, 8-Dimethylaminomethyl-2-fluoro-4b,5,6,7,8,8a,9,10-octahydrophenanthrene hydrochloride], the “Percentage inhibition … at 10 μM” value in assay [1] came out at 36%.
